The test concerns NRF2 (NQO1 activity as marker for NRF2 activation), BEAS-2B cells. Description: BEAS-2B NQO1 MTT Assay. Type of test: cell-based. To be noted: Homo sapiens, EC50 of NQO1 specific activity induction, 48 hours incubation, read-out: EC50. Summed up:
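BEAS-2B cells were exposed to compound for 48 h at 37° C, 5% CO2, then lysed. NQO1 activity was measured kinetically by MTT reduction at 570 nm over 30 minutes; EC50 came from 3-parameter fit of Delta OD/min versus log concentration.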

The results in this text go back to patent US11078216B2, “Bisaryl amides as NRF2 activators” (GLAXOSMITHKLINE INTELLECTUAL PROPERTY DEVELOPMENT LIMITED, priority 2016, dated 2021).

Molecules are shown by their SMILES.

As usually defined, the EC50 is the concentration that produces a half-maximal response. Take `CC[C@H]1Cc2ncccc2S(=O)(=O)N(Cc2cc([C@@H](c3ccc4c(nnn4CC)c3C)C(C)(C)C(=O)Nc3cncnc3)ccc2C)C1` [Example 95, (S)-3-(3-(((S)-4-Ethyl-1,1-dioxido-4,5-dihydropyrido[2,3-f][1,2]thiazepin-2(3H)-yl)methyl)-4-methylphenyl)-3-(1-ethyl-4-methyl-1H-benzo[d][1,2,3]triazol-5-yl)-2,2-dimethyl-N-(pyrimidin-5-yl)propanamide]: the EC50 fell in the range of 1 to 10 nM.

With `CC[C@@H]1CN(Cc2cc([C@@H](c3ccc4c(nnn4CC)c3C)C(C)(C)C(=O)Nc3cncnc3)ccc2C)S(=O)(=O)c2cnccc2O1` [Example 96, (S)-3-(3-(((R)-4-Ethyl-1,1-dioxido-3,4-dihydro-2H-pyrido[4,3-b][1,4,5]oxathiazepin-2-yl)methyl)-4-methylphenyl)-3-(1-ethyl-4-methyl-1H-benzo[d][1,2,3]triazol-5-yl)-2,2-dimethyl-N-(pyrimidin-5-yl)propanamide], the concentration for a half-maximal effect (EC50) lay in the range of 1 to 10 nM.

As to `CC[C@@H]1CN(Cc2cc([C@@H](c3ccc4c(nnn4CC)c3C)C(C)(C)C(=O)Nc3cncnc3)ccc2C)S(=O)(=O)c2ccc(Br)cc2O1` [Example 97, (S)-3-(3-(((R)-7-Bromo-4-ethyl-1,1-dioxido-3,4-dihydro-2H-benzo[b][1,4,5]oxathi-azepin-2-yl)methyl)-4-methylphenyl)-3-(1-ethyl-4-methyl-1H-benzo[d][1,2,3]triazol-5-yl)-2,2-dimethyl-N-(pyrimidin-5-yl)propanamide], the half-maximal effective concentration (EC50) was in the range of 1 to 10 nM.

Take `CC[C@@H]1CN(Cc2cc([C@@H](c3ccc4c(nnn4CC)c3C)C(C)(C)C(=O)Nc3cncnc3)ccc2C)S(=O)(=O)c2cc(Br)ccc2O1` [Example 98, (S)-3-(3-(((R)-8-Bromo-4-ethyl-1,1-dioxido-3,4-dihydro-2H-benzo[b][1,4,5]oxathi-azepin-2-yl)methyl)-4-methylphenyl)-3-(1-ethyl-4-methyl-1H-benzo[d][1,2,3]triazol-5-yl)-2,2-dimethyl-N-(pyrimidin-5-yl)propanamide]: the EC50 fell in the range of 1 to 10 nM.

For `CC[C@@H]1CN(Cc2cc([C@@H](c3ccc4c(nnn4CC)c3C)C(C)(C)NC(N)=O)ccc2C)S(=O)(=O)c2ccccc2O1` [Example 99, 1-((S)-1-(3-(((R)-4-ethyl-1,1-dioxido-3,4-dihydro-2H-benzo[b][1,4,5]oxathiazepin-2-yl)methyl)-4-methylphenyl)-1-(1-ethyl-4-methyl-1H-benzo[d][1,2,3]triazol-5-yl)-2-methylpropan-2-yl)urea], the concentration giving a half-maximal response (EC50) lay within 100 to 1000 nM.

Consider `CC[C@@H]1CN(Cc2cc([C@@H](c3ccc4c(nnn4C)c3C)C(C)(C)C(=O)NC3CCOC3)ccc2C)Cc2cnccc2O1` (stereo partly drawn) [Example 100, (3S)-3-(1,4-Dimethyl-1H-benzo[d][1,2,3]triazol-5-yl)-3-(3-(((R)-2-ethyl-2,3-dihydropyrido[3,44][1,4]oxazepin-4(5H)-yl)methyl)-4-methylphenyl)-2,2-dimethyl-N-(tetrahydrofuran-3-yl)propanamide], for which the half-maximal effective concentration (EC50) was in the range of 100 to 1000 nM.

Regarding `CC[C@@H]1CN(Cc2cc([C@@H](c3ccc4c(nnn4C)c3C)C(C)(C)C(=O)NC3CCS(=O)(=O)C3)ccc2C)Cc2cnccc2O1` (stereo partly drawn) [Example 101, (3S)-3-(1,4-Dimethyl-1H-benzo[d][1,2,3]triazol-5-yl)-N-(1,1-dioxidotetrahydrothio-phen-3-yl)-3-(3-(((R)-2-ethyl-2,3-dihydropyrido[3,4-f][1,4]oxazepin-4(5H)-yl)methyl)-4-methylphenyl)-2,2-dimethylpropanamide], the EC50 is 10 to 100 nM.

As to `CC[C@@H]1CN(Cc2cc([C@@H](c3ccc4c(nnn4CC)c3C)C(C)(C)C(=O)NCCNC)ccc2C)S(=O)(=O)c2cccnc2O1` [Example 102, (S)-3-(3-(((R)-4-Ethyl-1,1-dioxido-3,4-dihydro-2H-pyrido[2,3-b][1,4,5]oxathiazepin-2-yl)methyl)-4-methylphenyl)-3-(1-ethyl-4-methyl-1H-benzo[d][1,2,3]triazol-5-yl)-2,2-dimethyl-N-(2-(methylamino)ethyl) propanamide], the concentration for a half-maximal effect (EC50) was 10 to 100 nM.

As for `CC[C@H]1Cc2ncccc2S(=O)(=O)N(Cc2cc([C@H](CC(=O)Nc3cccnc3)c3ccc4c(nnn4CC)c3C)ccc2C)C1` [Example 103, (S)-3-(3-(((S)-4-Ethyl-1,1-dioxido-4,5-dihydropyrido[2,3-f][1,2]thiazepin-2(3H)-yl)methyl)-4-methylphenyl)-3-(1-ethyl-4-methyl-1H-benzo[d][1,2,3]triazol-5-yl)-N-(pyridin-3-yl)propanamide], the EC50 was 10 to 100 nM.

As to `CC[C@@H]1CN(Cc2cc([C@@H](c3ccc4c(nnn4CC)c3C)C(C)(C)C(=O)NCc3ncc[nH]3)ccc2C)S(=O)(=O)c2cccnc2O1` [Example 104, (S)-N-((1H-Imidazol-2-yl)methyl)-3-(3-(((R)-4-ethyl-1,1-dioxido-3,4-dihydro-2H-pyrido[2,3-b][1,4,5]oxathiazepin-2-yl)methyl)-4-methylphenyl)-3-(1-ethyl-4-methyl-1H-benzo[d][1,2,3]triazol-5-yl)-2,2-dimethylpropanamide], the EC50 lay within 100 to 1000 nM.

As for `CC[C@H]1Cc2ncccc2S(=O)(=O)N(Cc2cc([C@H](CC(=O)Nc3cncnc3)c3ccc4c(nnn4CC)c3C)ccc2C)C1` [Example 105, (S)-3-(3-(((S)-4-Ethyl-1,1-dioxido-4,5-dihydropyrido[2,3-f][1,2]thiazepin-2(3H)-yl)methyl)-4-methylphenyl)-3-(1-ethyl-4-methyl-1H-benzo[d][1,2,3]triazol-5-yl)-N-(pyrimidin-5-yl)propanamide], the EC50 was 10 to 100 nM.

For `CC[C@@H]1CN(Cc2cc([C@@H](c3ccc4c(nnn4CC)c3C)C(C)(C)C(=O)NC3CCS(=O)(=O)C3)ccc2C)S(=O)(=O)c2cccnc2O1` (stereo partly drawn) [Example 106, (3S)-N-(1,1-Dioxidotetrahydrothio-phen-3-yl)-3-(3-(((R)-4-ethyl-1,1-dioxido-3,4-dihydro-2H-pyrido[2,3-b][1,4,5]oxathiazepin-2-yl)methyl)-4-methylphenyl)-3-(1-ethyl-4-methyl-1H-benzo[d][1,2,3]triazol-5-yl)-2,2-dimethylpropanamide], the concentration for a half-maximal effect (EC50) was 100 to 1000 nM.

With `CC[C@@H]1CN(Cc2cc([C@H](CC(=O)Nc3ccnnc3)c3ccc4c(nnn4CC)c3C)ccc2C)S(=O)(=O)c2cccnc2O1` [Example 107, (S)-3-(3-(((R)-4-Ethyl-1,1-dioxido-3,4-dihydro-2H-pyrido[2,3-b][1,4,5]oxathiazepin-2-yl)methyl)-4-methylphenyl)-3-(1-ethyl-4-methyl-1H-benzo[d][1,2,3]triazol-5-yl)-N-(pyridazin-4-yl)propanamide], the EC50 was 100 to 1000 nM.

Take `CC[C@@H]1CN(Cc2cc([C@H](CC(=O)Nc3ccncn3)c3ccc4c(nnn4CC)c3C)ccc2C)S(=O)(=O)c2cccnc2O1` [Example 108, (S)-3-(3-(((R)-4-Ethyl-1,1-dioxido-3,4-dihydro-2H-pyrido[2,3-b][1,4,5]oxathiazepin-2-yl)methyl)-4-methylphenyl)-3-(1-ethyl-4-methyl-1H-benzo[d][1,2,3]triazol-5-yl)-N-(pyrimidin-4-yl)propanamide]: the EC50 lay in the range of 100 to 1000 nM.

`CC[C@@H]1CN(Cc2cc([C@H](CC(=O)Nc3cncnc3)c3ccc4c(nnn4CC)c3C)ccc2C)S(=O)(=O)c2cccnc2O1` [Example 109, (S)-3-(3-(((R)-4-Ethyl-1,1-dioxido-3,4-dihydro-2H-pyrido[2,3-b][1,4,5]oxathiazepin-2-yl)methyl)-4-methylphenyl)-3-(1-ethyl-4-methyl-1H-benzo[d][1,2,3]triazol-5-yl)-N-(pyrimidin-5-yl)propanamide]: the EC50 lay within 10 to 100 nM.

As for `CC[C@@H]1CN(Cc2cc([C@H](CC(=O)Nc3cccnc3)c3ccc4c(nnn4CC)c3C)ccc2Cl)S(=O)(=O)c2cccnc2O1` [Example 110, (S)-3-(4-Chloro-3-(((R)-4-ethyl-1,1-dioxido-3,4-dihydro-2H-pyrido[2,3-b][1,4,5]oxathiazepin-2-yl)methyl)phenyl)-3-(1-ethyl-4-methyl-1H-benzo[d][1,2,3]triazol-5-yl)-N-(pyridin-3-yl)propanamide], the EC50 was in the range of 10 to 100 nM.

In the case of `CC[C@@H]1CN(Cc2cc([C@@H](c3ccc4c(nnn4C)c3C)C(C)(C)C(=O)Nc3ccncc3)ccc2C)Cc2cnccc2O1` [Example 112, (S)-3-(1,4-Dimethyl-1H-benzo[d][1,2,3]triazol-5-yl)-3-(3-(((R)-2-ethyl-2,3-dihydropyrido[3,4-f][1,4]oxazepin-4(5H)-yl)methyl)-4-methylphenyl)-2,2-dimethyl-N-(pyridin-4-yl)propanamide], the concentration for a half-maximal effect (EC50) fell in the range of 100 to 1000 nM.

Consider `CC[C@@H]1CN(Cc2cc([C@@H](c3ccc4c(nnn4CC)c3C)C(C)(C)C(=O)N[C@H]3CCOC3)ccc2C)S(=O)(=O)c2cccnc2O1` [Example 113, (S)-3-(3-(((R)-4-Ethyl-1,1-dioxido-3,4-dihydro-2H-pyrido[2,3-b][1,4,5]oxathiazepin-2-yl)methyl)-4-methylphenyl)-3-(1-ethyl-4-methyl-1H-benzo[d][1,2,3]triazol-5-yl)-2,2-dimethyl-N-((S)-tetrahydrofuran-3-yl)propanamide], for which the concentration for a half-maximal effect (EC50) was in the range of 10 to 100 nM.

On to `CC[C@@H]1CN(Cc2cc([C@@H](c3ccc4c(nnn4CC)c3C)C(C)(C)C(=O)N[C@@H]3CCOC3)ccc2C)S(=O)(=O)c2cccnc2O1` [Example 114, (S)-3-(3-(((R)-4-Ethyl-1,1-dioxido-3,4-dihydro-2H-pyrido[2,3-b][1,4,5]oxathiazepin-2-yl)methyl)-4-methylphenyl)-3-(1-ethyl-4-methyl-1H-benzo[d][1,2,3]triazol-5-yl)-2,2-dimethyl-N-((R)-tetrahydrofuran-3-yl)propanamide], for which the concentration giving a half-maximal response (EC50) lay within 10 to 100 nM.

On to `CC[C@@H]1CN(Cc2cc([C@@H](c3ccc4c(nnn4CC)c3C)C(C)(C)C(=O)Nc3cnc(SC)nc3)ccc2C)S(=O)(=O)c2cccnc2O1` [Example 115, (S)-3-(3-(((R)-4-Ethyl-1,1-dioxido-3,4-dihydro-2H-pyrido[2,3-b][1,4,5]oxathiazepin-2-yl)methyl)-4-methylphenyl)-3-(1-ethyl-4-methyl-1H-benzo[d][1,2,3]triazol-5-yl)-2,2-dimethyl-N-(2-(methylthio)pyrimidin-5-yl)propanamide], for which the EC50 lay within 1 to 10 nM.
